Assays:
[1] = test system: LNCaP (PSMA+) prostate cancer cells; test: Luminescence cytotoxicity assay, absence of effector cells, LNCaP; format: cell-based; conditions: LNCaP (PSMA present), up to 20 nM, 4 days incubation
Procedure: (§1) Firefly luciferase transduced prostate cancer target cell lines were used for cytotoxicity assays, LNCaP (ATCC® CRL-1740™), PSMA+(cultured in RPMI-1640+10% non-heat-inactivated FBS+0.5 μg/mL Puromycin) and PC-3 (ATCC® CRL-1435™), PSMA-(cultured in RPMI-1640+10% heat-inactivated FBS+1.0 μg/mL Puromycin). Cells were harvested with TrypLE (ThermoFisher Scientific) then resuspended in fresh RPMI-1640+10% heat-inactivated FBS and plated at 4,000 cells/well in 100 μL. After overnight incubation at 37° C. in a humidified 5% CO2 incubator, serial dilutions of proteins in RPMI-1640+10% heat-inactivated medium (50 μL) were added to the assay plates at the indicated concentrations. In experiments utilizing effector cells, freshly thawed peripheral blood mononuclear cells (PBMCs) were washed with media and added to the assay plates at 40,000 cells in 50 μL to obtain an effector:target ratio of 10:1. After 4 days incubation, 90 μL was removed from assay plates and 90 μL ONE Glo Luciferase Assay Reagent (Promega # E6120) was mixed with the samples and incubated at room temperature for 10 min. Samples were transferred to white 96-well flat bottom plates for luminescence measurements using a PerkinElmer EnSpire multimode plate reader. Data was analyzed using GraphPad Prism software.

[2] = test system: PC-3 (PSMA-) prostate cancer cells; test: Luminescence cytotoxicity assay, absence of effector cells, PC-3; format: cell-based; conditions: PC-3 (PSMA absent), up to 20 nM, 4 days incubation
Procedure: as §1

O=C(O)CCC(NC(=O)NC(CCC(=O)O)C(=O)O)C(=O)O (centres unmarked) [DUPA small molecule, 2-[3-(1,3-dicarboxypropyl)ureido]pentanedioic acid]
dose-dependent cell killing activity [1]: No dose-dependent cell killing activity was observed | dose-dependent cell killing activity [2]: No dose-dependent cell killing activity was observed

From patent publication US10799598B2, “Disulfide bridging conjugates” (Sorrento Therapeutics, Inc., priority 2017, dated 2020)
